Details: microsomes

Structure (SMILES): N#Cc1cnn(C(=O)N2C3CCC2CN(c2nc(OC[C@@]45CCCN4C[C@H](F)C5)nc4c(F)c(-c5ccc(F)c6sc(N)c(C#N)c56)c(Cl)cc24)C3)c1 [Compound A278, 1-(3-(7-(2-amino-3-cyano-7-fluorobenzo[b]thiophen-4-yl)-6-chloro-8-fluoro-2-(((2R,7aS)-2-fluorotetrahydro-1H-pyrrolizin-7a(5H)-yl)methoxy)quinazolin-4-yl)-3,8-diazabicyclo[3.2.1]-octane-8-carbonyl)-1H-pyr-azole-4-carbonitrile]
- T½ microsomal stability: greater than 10 mins
